According to patent publication US20260062422A1 (Halda Therapeutics OpCo, Inc., priority 2022, published 2026):

What was measured:
progesterone receptor = target: T1, progesterone receptor (Homo sapiens, UniProt P06401); experiment: PR Human Progesterone NHR Binding (Agonist Radioligand) Assay, T47D cytosol; details: T47D cytosolic fractions, 0.5 nM [3H]progesterone, 1 hour at 4° C., Table 16
T1 construct: host or cells: T47D cells (cytosolic fraction)
T1 sequence (P06401 1-933): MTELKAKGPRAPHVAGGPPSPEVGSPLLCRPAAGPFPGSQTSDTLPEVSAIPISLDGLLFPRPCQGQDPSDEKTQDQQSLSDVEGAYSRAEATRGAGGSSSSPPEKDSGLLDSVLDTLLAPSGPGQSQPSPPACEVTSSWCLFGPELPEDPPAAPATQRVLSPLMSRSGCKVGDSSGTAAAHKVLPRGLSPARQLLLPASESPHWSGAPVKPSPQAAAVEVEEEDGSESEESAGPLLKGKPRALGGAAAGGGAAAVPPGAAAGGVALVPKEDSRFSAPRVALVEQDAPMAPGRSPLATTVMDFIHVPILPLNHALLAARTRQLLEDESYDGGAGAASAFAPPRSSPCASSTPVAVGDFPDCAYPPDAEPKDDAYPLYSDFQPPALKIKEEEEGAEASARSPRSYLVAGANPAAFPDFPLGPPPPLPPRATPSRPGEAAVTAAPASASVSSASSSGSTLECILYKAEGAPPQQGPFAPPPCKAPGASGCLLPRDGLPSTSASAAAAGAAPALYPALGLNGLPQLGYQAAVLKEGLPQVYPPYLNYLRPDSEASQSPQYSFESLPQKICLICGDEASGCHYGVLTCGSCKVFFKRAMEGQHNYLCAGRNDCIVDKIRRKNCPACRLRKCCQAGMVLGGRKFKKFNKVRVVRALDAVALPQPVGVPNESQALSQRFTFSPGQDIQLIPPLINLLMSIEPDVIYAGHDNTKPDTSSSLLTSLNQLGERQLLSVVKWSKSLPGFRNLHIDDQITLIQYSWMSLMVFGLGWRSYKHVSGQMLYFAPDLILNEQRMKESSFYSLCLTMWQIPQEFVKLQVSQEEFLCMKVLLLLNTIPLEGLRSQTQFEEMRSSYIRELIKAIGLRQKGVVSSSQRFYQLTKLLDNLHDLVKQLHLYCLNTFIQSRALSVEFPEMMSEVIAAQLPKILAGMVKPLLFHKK
Description: Compounds were tested using the PR Human Progesterone NHR Binding (Agonist Radioligand) Assay, Cerep at Eurofins Discovery using a modified version of the protocol from Sarup et al. (Cancer Res 1988; 48:5071-5078). Briefly, cytosolic fractions of T47D cells were incubated with 0.5 nM [^3H]progesterone for 1 hour at 4° C. in the absence or presence of the test compound. Nonspecific binding was determined in the presence of 1 μM promegestone. Reactions were subjected to scintillation counting. Results are expressed as a percent inhibition of the control radioligand specific binding.

T47D cells = experiment: Cellular growth inhibition assay for T47D cells, CellTiter-Glo; type: cell-based, human; details: Homo sapiens, T47D, 72 h, 72 hours treatment, CellTiter-Glo 2.0 cell viability
Method in brief: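 Growth inhibition as GI50, fitted with four parameters to CellTiter-Glo luminescence after 72 h of compound exposure (0.5% DMSO). Cells were T47D, grown in insulin-supplemented (0.2 units/mL) DMEM with 10% FBS and treated one day post-seeding.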

androgen receptor = target: T2, androgen receptor (Homo sapiens, UniProt P10275); experiment: Assay for binding affinity to androgen receptor ([3H]methyltrienolone radioligand, cell cytosol); details: 1 nM [3H]methyltrienolone, 24 hours at 4° C., Table 5
T2 sequence (P10275 1-920 T878A): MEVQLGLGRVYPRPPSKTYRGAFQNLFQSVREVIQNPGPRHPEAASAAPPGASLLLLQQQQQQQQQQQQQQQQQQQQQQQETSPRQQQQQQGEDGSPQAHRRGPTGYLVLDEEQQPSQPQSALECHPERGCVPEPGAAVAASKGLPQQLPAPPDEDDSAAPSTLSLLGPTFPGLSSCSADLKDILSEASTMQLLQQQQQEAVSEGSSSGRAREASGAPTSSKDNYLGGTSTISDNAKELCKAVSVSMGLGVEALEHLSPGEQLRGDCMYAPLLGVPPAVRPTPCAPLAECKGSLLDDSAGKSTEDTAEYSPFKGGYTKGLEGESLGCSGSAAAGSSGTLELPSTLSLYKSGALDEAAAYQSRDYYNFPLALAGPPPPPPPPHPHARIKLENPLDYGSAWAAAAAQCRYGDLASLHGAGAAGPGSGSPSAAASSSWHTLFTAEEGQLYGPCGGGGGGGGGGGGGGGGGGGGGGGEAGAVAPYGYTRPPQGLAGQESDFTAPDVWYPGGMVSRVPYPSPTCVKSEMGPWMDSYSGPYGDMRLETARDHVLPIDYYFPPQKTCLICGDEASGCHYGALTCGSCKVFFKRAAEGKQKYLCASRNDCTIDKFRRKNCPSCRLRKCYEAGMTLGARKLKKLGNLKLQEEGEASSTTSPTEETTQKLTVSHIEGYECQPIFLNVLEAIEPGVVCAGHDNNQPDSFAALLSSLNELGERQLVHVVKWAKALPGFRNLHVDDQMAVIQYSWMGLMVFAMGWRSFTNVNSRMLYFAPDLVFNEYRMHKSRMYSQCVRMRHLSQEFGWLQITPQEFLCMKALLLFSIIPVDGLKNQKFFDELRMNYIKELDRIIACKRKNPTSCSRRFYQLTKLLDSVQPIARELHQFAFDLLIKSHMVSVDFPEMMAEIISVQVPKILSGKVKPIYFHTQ
Description: Fractions of cell cytosol ([…] cell/point) were incubated for 24 hours at 4° C. with 1 nM [^3H]methyltrienolone in the absence or presence of the test compound in a buffer containing 25 mM Hepes-Tris (pH 7.4), 1 mM EDTA, 10 mM Na2MoO4, 2 mM DTT, 5 μM triamcinolone acetonide, and 10% glycerol. Nonspecific binding was determined in the presence of 1 μM testosterone. Following incubation, the samples were filtered rapidly under vacuum through glass fiber filters (GF/B, Packard) presoaked with 0.3% PEI and rinsed several times with ice-cold 50 mM Tris-HCl using a 96-sample cell harvester (Unifilter, Packard). The filters were dried then counted for radioactivity in a scintillation counter (Topcount, Packard) using a scintillation cocktail (Microscint 0, Packard). The results are expressed as a percent inhibition of the control radioligand specific binding. The standard reference compound is testosterone, which is tested in each experiment at several concentrations to obtain a competition curve from which its IC50 is calculated.

[1] = target: T3, progesterone receptor ligand binding domain (LBD) (Homo sapiens, UniProt P06401); experiment: FP assay (PolarScreen Progesterone Receptor Competitor Assay) for binding to progesterone receptor LBD; details: GST-tagged PR LBD, Fluormone tracer, fluorescence polarization, 2 hours; Table 17
T3 construct: GST-tagged PR LBD, Fluormone tracer, and compound were mixed; purchased Life Technologies A15905 or a15906
T3 sequence (P06401 679-913 limits assumed): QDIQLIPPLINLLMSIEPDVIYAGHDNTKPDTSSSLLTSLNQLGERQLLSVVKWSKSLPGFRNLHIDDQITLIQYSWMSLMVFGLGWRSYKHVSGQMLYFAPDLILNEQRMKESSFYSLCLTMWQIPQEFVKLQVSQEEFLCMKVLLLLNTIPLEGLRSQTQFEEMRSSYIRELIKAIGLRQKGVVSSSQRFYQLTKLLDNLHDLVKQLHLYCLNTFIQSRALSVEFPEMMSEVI
Description: Compounds were tested using the PolarScreen™ Progesterone Receptor Competitor Assay Kit (Life Technologies Cat #A15905 or a15906), as per the manufacturer's instructions. Briefly, GST-tagged PR LBD, Fluormone tracer, and compound were mixed and incubated for 2 hours at room temperature in the dark. Following incubation, the plates were spun at 3000×g for 30 seconds, then sealed with an optical adhesive cover, and fluorescence polarization was measured using appropriate excitation and emission filters with an EnVision Plate Reader (Perkin Elmer). Compound concentration vs. mP value were plotted in Prism (GraphPad). A four-parameter non-linear regression curve fit was applied to dose-response data to determine the half-maximal inhibitory concentration (IC50) for each test compound.

VCaP cells = experiment: Cellular growth inhibition assay for VCaP cells, CellTiter-Glo; type: cell-based, human; details: Homo sapiens, VCaP, 72 h, 72 hours treatment, CellTiter-Glo 2.0
Method in brief: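 GI50 values come from four-parameter curve fits of luminescence data normalized to a zero baseline. Compound, in medium with 0.5% DMSO, was added one day after plating and left for 72 h before CellTiter-Glo 2.0 addition.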

BRD4-BD1 = target: T4, BRD4-BD1 (Homo sapiens, UniProt O60885); experiment: bromoKdELECT assay for binding affinity to BRD4-BD1; details: Table 6
T4 construct: made in house; host or cells: T7 phage grown in an E. coli host derived from BL21
Description: (§1) Compounds were tested using a bromoKdELECT assay. T7 phage strains displaying bromodomains were grown in parallel in 24-well blocks in an E. coli host derived from the BL21 strain. E. coli were grown to log-phase and infected with T7 phage from a frozen stock (multiplicity of infection=0.4) and incubated with shaking at 32° C. until lysis (90-150 minutes). The lysates were centrifuged (5,000×g) and filtered (0.2 μm) to remove cell debris. Streptavidin-coated magnetic beads were treated with biotinylated small molecule or acetylated peptide ligands for 30 minutes at room temperature to generate affinity resins for bromodomain assays. The liganded beads were blocked with excess biotin and washed with blocking buffer (SeaBlock (Pierce), 1% BSA, 0.05% Tween 20, 1 mM DTT) to remove unbound ligand and to reduce nonspecific phage binding. Binding reactions were assembled by combining bromodomains, liganded affinity beads, and test compounds in 1× binding buffer (17% SeaBlock, 0.33×PBS, 0.04% Tween 20, 0.02% BSA, 0.004% Sodium azide, 7.4 mM DTT). Test compounds were prepared as 1000× stocks in 100% DMSO. Kds were determined using an 11-point 3-fold compound dilution series with one DMSO control point. All compounds for Kd measurements are distributed by acoustic transfer (non-contact dispensing) in 100% DMSO. The compounds were then diluted directly into the assays such that the final concentration of DMSO was 0.09%. All reactions performed in polypropylene 384-well plates. Each was a final volume of 0.02 ml. The assay plates were incubated at room temperature with shaking for 1 hour and the affinity beads were washed with wash buffer (1×PBS, 0.05% Tween 20). The beads were then resuspended in elution buffer (1×PBS, 0.05% Tween 20, 2 M non-biotinylated affinity ligand) and incubated at room temperature with shaking for 30 minutes. The bromodomain concentration in the eluates was measured by qPCR.

BRD4-BD2 = target: T5, BRD4-BD2 (Homo sapiens, UniProt O60885); experiment: bromoKdELECT assay for binding affinity to BRD4-BD2; details: Table 7
T5 construct: made in house; host or cells: T7 phage grown in an E. coli host derived from BL21
Description: as §1, with “2 μM” for “2 M”

[2] = tested on: T-Rex 293 cell line SC3 cells lacking increased expression of androgen receptor protein; experiment: Cellular growth inhibition, T-Rex 293 SC3 cells without doxycycline, CellTiter-Glo; type: cell-based; details: 72 h, T-Rex 293 SC3 cells not exposed to doxycycline, CellTiter-Glo 2.0
Method in brief: (§2)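 With DMSO (0.5%) vehicle as negative control, compounds treated SC3 cells for 72 h in medium containing charcoal-dextran FBS ± doxycycline. This T-Rex 293 clone expresses transfected wild-type AR on induction. Readout: CellTiter-Glo 2.0; GI50 by nonlinear regression.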

[3] = tested on: T-Rex 293 cell line SC3 cells having increased expression of androgen receptor protein due to exposure to doxycycline; experiment: Cellular growth inhibition, T-Rex 293 SC3 cells with doxycycline (androgen receptor induced), CellTiter-Glo; type: cell-based; details: 72 h, T-Rex 293 SC3 cells with 10 ng/mL doxycycline (increased androgen receptor expression)
Method in brief: as §2

With `Cc1sc2c(c1C)C(c1ccc(N3CC(CC4CN(c5cnc(C(=O)N[C@H]6C(C)(C)[C@H](Oc7ccc(C#N)c(Cl)c7)C6(C)C)cn5)C4)C3)cc1)=N[C@@H](C)c1nnc(C)n1-2` [Compound I-503] the Ki (progesterone receptor) was < 50 nM, the GI50 (T47D cells) was < 500 nM and the Kd (androgen receptor) was 50 to 500 nM.

`Cc1sc2c(c1C)C(c1ccc(CCCOC3CCN(c4ncc5c(n4)CN([C@H]4C(C)(C)[C@H](Oc6ccc(C#N)c(Cl)c6)C4(C)C)C5=O)CC3)cc1)=NC(Cc1ncco1)c1nnc(C)n1-2` (stereo partly shown) [Compound I-134] was tested, and the IC50 [1] was 50 to 500 nM, the GI50 (T47D cells) was 500 to 1500 nM and the GI50 (VCaP cells) was < 500 nM.

In the case of `Cc1sc2c(c1C)C(c1ccc(Cl)cc1)=N[C@@H](CC(=O)NCCOCCOCCOC1CCN(c3ncc(C(=O)N[C@H]4C(C)(C)[C@H](Oc5ccc(C#N)c(Cl)c5)C4(C)C)cn3)C1)c1nnc(C)n1-2` (stereo partly shown) [Compound I-16], the Kd (BRD4-BD1) is reported as 500 to 2500 nM, the Kd (BRD4-BD2) is reported as < 50 nM and the GI50 [2] is reported as 1500 to 3000 nM. For the same molecule, the GI50 [3] was < 500 nM.
